Laboratory results from EPA's ToxValDB 9.5.

System: Rattus norvegicus
Conditions: oral
[1] = acute, gavage, M, Wistar, Central Nervous System: Novel object recognition test
[2] = chronic, duration: 110 days, gavage, M, Sprague-Dawley, Adrenal: Progesterone (P4)
[3] = chronic, duration: 110 days, gavage, M, Sprague-Dawley, Kidney: Blood Urea Nitrogen (BUN) + Kidney: Creatinine (CREAT), Blood + Liver: Alkaline Phosphatase (ALP), Blood + Liver: Bile Acids, Blood
[4] = chronic, duration: 110 days, gavage, M, Sprague-Dawley, Liver: Liver Histopathology + Liver: Triglycerides (TRIG), Blood
[5] = chronic, duration: 110 days, gavage, M, Sprague-Dawley, Liver: Total Bilirubin (TBILI), Blood + Whole Body: Body Weight Change (0-110d) + Whole Body: Body Weight Change (60-90d) + Whole Body: Body…
[6] = chronic, duration: 110 days, gavage, M, Sprague-Dawley, Testis: Testes, Non-Neoplastic Lesions + Whole Body: Body Weight, Absolute
[7] = chronic, duration: 110 days, gavage, M, Sprague-Dawley, Testis: Testosterone (T)
[8] = reproduction developmental, duration: 14 days, gavage, F, Crl:CD(SD), generation: P0, P0: Heart: Heart Weight, Absolute + P0: Liver: Liver Weight, Relative + P0: Pituitary: Pituitary Gland Weight, Absolute + P0: Spleen: Spleen…
[9] = reproduction developmental, duration: 42 days, gavage, M, Crl:CD(SD), generation: P0, P0: Adrenal Gland: Adrenal Gland, Atrophy of the cortex + P0: Adrenal: Adrenal Gland Weight, Absolute + P0: Blood: Albumin/Globulin (A/G) …
[10] = reproduction developmental, duration: 42 days, gavage, M, Crl:CD(SD), generation: P0, P0: Liver: Alkaline Phosphatase (ALP) + P0: Liver: Liver Weight, Relative + P0: Protein Fraction, Globulin alpha-2
[11] = short-term, duration: 2 weeks, gavage, M, Sprague-Dawley, Adrenal: Estradiol + Adrenal: Testosterone (T) + Testis: Testes Weight, Relative + Whole Body: Body Weight, Absolute
[12] = short-term, duration: 2 weeks, gavage, M, Sprague-Dawley, Liver: Cholesterol (CHOL), Total + Liver: Triglycerides (TRIG), Liver + Liver: Triglycerides (TRIG), Serum
[13] = short-term, duration: 2 weeks, gavage, M, Sprague-Dawley, Liver: Cholesterol (CHOL), Total + Pituitary: Leuteinizing hormone (LH) + Testis: Testes Weight, Absolute
[14] = short-term, duration: 2 weeks, gavage, M, Sprague-Dawley, Liver: Liver Weight, Absolute + Liver: Liver Weight, Relative
[15] = short-term, duration: 28 days, F, Sprague-Dawley, Multi-Organ: Cholesterol (CHOL), Total + Multi-Organ: Estradiol + Whole Body: Body Weight, Absolute

O=C(O)C(F)(F)C(F)(F)C(F)(F)C(F)(F)C(F)(F)C(F)(F)C(F)(F)C(F)(F)C(F)(F)C(F)(F)C(F)(F)F [Perfluorododecanoic acid]
50 mg/kg-day: NOAEL (acute, gavage, M, Wistar, Brain: Brain Weight, Absolute + Central Nervous System: Elevated platform test (elevated plus test) + Central Nervous System: Forced Swim …) | LOAEL (acute, gavage, M, Wistar, Brain: Brain Weight, Relative + Central Nervous System: Elevated platform test (elevated plus test) + Central Nervous System: Novel object …)
3 mg/kg-day: NOAEL (short-term, duration: 28 days, F, Sprague-Dawley, Leuteinizing hormone (LH) + Multi-Organ: Follicle stimulating hormone (FSH) + Ovary: Follicle Count, Antral + Ovary: Follicle Count, …) | LOAEL [15]
0.05 mg/kg-day: NOAEL [3] | LOAEL [4] | NOAEL [7]
10 mg/kg-day: LOAEL [12] | LOAEL [13] | NOAEL (short-term, duration: 2 weeks, gavage, M, Sprague-Dawley, Pituitary: Follicle stimulating hormone (FSH))
0.5 mg/kg-day: NOAEL (chronic, duration: 110 days, gavage, M, Sprague-Dawley, Leuteinizing hormone (LH) + Pancreas: Insulin + Pituitary: Follicle stimulating hormone (FSH) + Pituitary: Growth Hormone + Prostate: …) | NOAEL (chronic, duration: 110 days, gavage, M, Sprague-Dawley, Liver: Alanine Aminotransferase (ALT), Blood + Liver: Aspartate Aminotransferase (AST), Blood + Liver: Cholesterol (CHOL), Total, Blood + …) | LOAEL [5] | LOAEL [6] | NOAEL (developmental, duration: 14 days, gavage, F, Crl:CD(SD), generation: F1, F1: Whole Body: Body Weight, Fetal, PND0 + F1: Whole Body: Body Weight, Fetal, PND1 + F1: Whole Body: Body Weight, Fetal, PND4) | NOAEL (developmental, duration: 14 days, gavage, M, Crl:CD(SD), generation: F1, F1: Whole Body: Body Weight, Fetal, PND0 + F1: Whole Body: Body Weight, Fetal, PND1 + F1: Whole Body: Body Weight, Fetal, PND4) | NOAEL (reproduction developmental, duration: 14 days, gavage, F, Crl:CD(SD), generation: P0, P0: Adrenal: Adrenal Gland Weight, Absolute + P0: Adrenal: Adrenal Gland Weight, Relative + P0: Blood: Activated Partial Thromboplastin Time…) | LOAEL [8] | NOAEL (reproduction developmental, duration: 14 days, gavage, M/F, Crl:CD(SD), generation: F1, F1: Uterus: Fetuses, Dead + F1: Uterus: Fetuses, Live + F1: Whole Body: Live Birth Index + F1: Whole Body: Live Pups on Lactation Day 4 + F1…) | NOAEL [9] | LOAEL [10]
0.2 mg/kg-day: LOAEL [2] | LOAEL [3] | NOAEL [5] | NOAEL [6] | LOAEL [7]
0.1 mg/kg-day: NOAEL [8] | LOAEL (reproduction developmental, duration: 14 days, gavage, F, Crl:CD(SD), generation: P0, P0: Multi-Organ: Protein Fraction, Albumin) | NOAEL [10]
1 mg/kg-day: NOAEL [11] | NOAEL [14]
0.02 mg/kg-day: NOAEL [2] | LOAEL (chronic, duration: 110 days, gavage, M, Sprague-Dawley, Kidney: Creatine Kinase (CK), Blood + Liver: Albumin (A), Blood + Liver: Liver Weight, Absolute + Liver: Liver Weight, Relative + Liver: Low…) | NOAEL [4]
20 mg/kg-day: LOAEL [1]
1.5 mg/kg-day: NOAEL [15]
2.5 mg/kg-day: NOAEL (reproduction developmental, duration: 14 days, gavage, F, Crl:CD(SD), generation: P0, P0: Adrenal Gland: Adrenal Gland, Atrophy of the cortex + P0: Bone Marrow: Bone Marrow, Decrease in hematopoiesis + P0: Forestomach: …) | LOAEL (reproduction developmental, duration: 14 days, gavage, F, Crl:CD(SD), generation: P0, P0: Blood: Hematocrit (HCT) + P0: Blood: Hematocrit (HCT), Recovery + P0: Blood: Hemoglobin (HGB), Recovery + P0: Blood: Mean Corpuscular …) | LOAEL [9] | NOAEL (reproduction developmental, duration: 42 days, gavage, M, Crl:CD(SD), generation: P0, P0: Adrenal: Adrenal Gland Weight, Relative + P0: Basophils + P0: Blood: Activated Partial Thromboplastin Time (APTT) + P0: Blood: …)
5 mg/kg-day: NOAEL [1] | LOAEL [11] | NOAEL [12] | NOAEL [13] | LOAEL [14]
